The values that follow come from patent US9309224B2 (Deciphera Pharmaceuticals, LLC, priority 2013, dated 2016).

Where only a bound is given, the exact number is not on record here.

Test [1] deals with T1, unphosphorylated c-FMS kinase (uFMS, Seq. ID no. 1) (Homo sapiens, UniProt P07333).
T1 construct: purchased Millipore
T1 sequence (P07333 538-972): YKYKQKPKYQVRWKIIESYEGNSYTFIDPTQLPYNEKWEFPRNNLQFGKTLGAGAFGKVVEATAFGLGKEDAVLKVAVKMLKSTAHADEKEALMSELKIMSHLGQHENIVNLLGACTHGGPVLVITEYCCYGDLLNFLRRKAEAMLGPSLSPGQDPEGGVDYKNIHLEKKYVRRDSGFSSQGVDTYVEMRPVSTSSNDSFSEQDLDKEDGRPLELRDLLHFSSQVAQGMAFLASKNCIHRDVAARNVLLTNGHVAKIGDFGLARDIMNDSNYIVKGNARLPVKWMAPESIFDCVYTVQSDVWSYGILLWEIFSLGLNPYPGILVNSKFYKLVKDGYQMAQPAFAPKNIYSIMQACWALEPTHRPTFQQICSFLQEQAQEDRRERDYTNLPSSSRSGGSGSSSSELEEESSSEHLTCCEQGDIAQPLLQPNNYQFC
Description: uFMS kinase assay (pyruvate kinase/lactate dehydrogenase coupled). Conditions: ATP 500 μM. The format is biochemical.

The target of test [2] is T2, unphosphorylated c-KIT kinase (uKIT, Seq. ID no. 2) (Homo sapiens, UniProt P10721).
T2 construct: uKit with N-terminal GST fusion used for
T2 sequence (P10721 with tags, fused parts or gaps): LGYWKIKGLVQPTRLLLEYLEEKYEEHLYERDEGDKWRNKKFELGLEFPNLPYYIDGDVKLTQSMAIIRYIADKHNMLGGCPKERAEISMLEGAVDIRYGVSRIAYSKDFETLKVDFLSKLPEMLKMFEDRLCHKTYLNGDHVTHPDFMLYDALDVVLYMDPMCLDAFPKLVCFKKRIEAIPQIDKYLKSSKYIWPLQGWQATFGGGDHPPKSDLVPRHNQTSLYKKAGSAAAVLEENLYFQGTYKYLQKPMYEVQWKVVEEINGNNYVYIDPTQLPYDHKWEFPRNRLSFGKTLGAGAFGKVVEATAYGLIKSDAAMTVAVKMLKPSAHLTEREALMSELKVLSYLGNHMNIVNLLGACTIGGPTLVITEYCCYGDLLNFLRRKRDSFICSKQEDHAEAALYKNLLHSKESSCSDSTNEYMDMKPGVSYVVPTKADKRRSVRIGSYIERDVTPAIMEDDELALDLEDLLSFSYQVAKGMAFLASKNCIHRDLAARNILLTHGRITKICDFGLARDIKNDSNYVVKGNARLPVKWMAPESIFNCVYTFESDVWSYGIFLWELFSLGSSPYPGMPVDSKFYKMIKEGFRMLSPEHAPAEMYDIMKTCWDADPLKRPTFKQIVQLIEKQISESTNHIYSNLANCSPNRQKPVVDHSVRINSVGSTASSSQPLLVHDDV
The test can be described thus: uKit kinase assay (pyruvate kinase/lactate dehydrogenase coupled). It counts as biochemical. Conditions: ATP 2000 μM.
Description: In this assay, the oxidation of NADH (thus the decrease at A340 nm) was continuously monitored spectrophometrically. […] The inhibition reaction was started by mixing serial diluted test compound with the above reaction mixture. The absorption at 340 nm was monitored continuously for 4 hours at 30° C. on Synergy 2 plate reader (BioTech).

Test [3] has as its target T3, unphosphorylated PDGFRβ kinase (uPDGFRβ, Seq. ID No. 3) (Homo sapiens, UniProt P09619).
T3 construct: purchased DeCode
The test can be described thus: Unphosphorylated PDGFRβ kinase assay (pyruvate kinase/lactate dehydrogenase coupled). It counts as biochemical. The note with it: ATP 500 μM. An excerpt:
Unphosyhorylated PDGFRβ (uPDGFRβkinase (Seq. ID No. 3) assay

For another test, the system named is M-NFS-60 cells. The test can be described thus: M-NFS-60 cell proliferation assay. It counts as cell-based. The note with it: 67 h incubation, resazurin. For orientation: The colour change of resazurin is a common sign of viable cells or microbes.
For another test, the system named is osteoclast precursors. Description: Osteoclast tartrate-resistant acid phosphatase assay. It counts as cell-based. Conditions: Osteoclast; 7-14 days, RANKL and M-CSF.
Test [4] deals with T4, phospho-FMS in THP-1 cells (Homo sapiens, UniProt P07333).
T4 construct: endogenous in cells; host or cells: THP-1 (ATCC TIB-202)
T4 sequence (P07333 20-972): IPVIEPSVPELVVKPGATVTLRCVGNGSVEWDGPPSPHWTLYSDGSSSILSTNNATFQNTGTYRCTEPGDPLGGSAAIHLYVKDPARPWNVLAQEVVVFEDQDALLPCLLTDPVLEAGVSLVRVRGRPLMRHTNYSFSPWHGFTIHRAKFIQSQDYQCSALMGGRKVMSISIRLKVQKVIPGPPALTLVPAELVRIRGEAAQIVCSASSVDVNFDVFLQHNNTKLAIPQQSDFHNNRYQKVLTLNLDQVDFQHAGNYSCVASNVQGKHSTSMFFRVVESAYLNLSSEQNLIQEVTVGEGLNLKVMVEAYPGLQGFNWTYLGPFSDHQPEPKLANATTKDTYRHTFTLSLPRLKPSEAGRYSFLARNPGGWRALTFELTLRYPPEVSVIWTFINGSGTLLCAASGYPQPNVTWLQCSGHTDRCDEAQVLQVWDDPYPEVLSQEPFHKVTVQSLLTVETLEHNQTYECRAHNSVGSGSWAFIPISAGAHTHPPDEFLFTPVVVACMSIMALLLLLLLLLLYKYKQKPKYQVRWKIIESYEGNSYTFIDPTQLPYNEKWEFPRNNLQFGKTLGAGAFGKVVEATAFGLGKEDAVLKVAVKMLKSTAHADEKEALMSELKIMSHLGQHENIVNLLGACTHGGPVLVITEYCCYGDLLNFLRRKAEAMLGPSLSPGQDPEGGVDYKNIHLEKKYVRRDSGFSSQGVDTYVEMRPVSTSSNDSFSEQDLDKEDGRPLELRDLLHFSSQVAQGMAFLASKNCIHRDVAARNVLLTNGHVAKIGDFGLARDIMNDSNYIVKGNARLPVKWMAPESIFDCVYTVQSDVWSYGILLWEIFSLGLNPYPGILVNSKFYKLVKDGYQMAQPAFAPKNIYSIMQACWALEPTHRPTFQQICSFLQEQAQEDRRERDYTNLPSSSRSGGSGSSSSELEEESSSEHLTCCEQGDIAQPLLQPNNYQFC
The test can be described thus: Phospho-FMS ELISA assay in THP-1 cells. Conditions: 4 hours compound, M-CSF stimulated; read-out: pFMS inhibition in THP-1 cells. It counts as cell-based.
Description: In a separate 96 well black clear bottom plate, one hundred and fifty thousand THP-1 cells were added per well in 100 μL in assay medium. Fifty microliters of diluted compound was then added to the cells. […] Lysates were prepared and used to perform the phospho-FMS ELISA as described by the manufacturer (catalog #DYC3268, R & D Systems, Minneapolis, Minn.). GraphPad Prism was used to calculate IC50 values obtained from data generated from the ELISA assay.

T3 sequence (P09619 557-1105): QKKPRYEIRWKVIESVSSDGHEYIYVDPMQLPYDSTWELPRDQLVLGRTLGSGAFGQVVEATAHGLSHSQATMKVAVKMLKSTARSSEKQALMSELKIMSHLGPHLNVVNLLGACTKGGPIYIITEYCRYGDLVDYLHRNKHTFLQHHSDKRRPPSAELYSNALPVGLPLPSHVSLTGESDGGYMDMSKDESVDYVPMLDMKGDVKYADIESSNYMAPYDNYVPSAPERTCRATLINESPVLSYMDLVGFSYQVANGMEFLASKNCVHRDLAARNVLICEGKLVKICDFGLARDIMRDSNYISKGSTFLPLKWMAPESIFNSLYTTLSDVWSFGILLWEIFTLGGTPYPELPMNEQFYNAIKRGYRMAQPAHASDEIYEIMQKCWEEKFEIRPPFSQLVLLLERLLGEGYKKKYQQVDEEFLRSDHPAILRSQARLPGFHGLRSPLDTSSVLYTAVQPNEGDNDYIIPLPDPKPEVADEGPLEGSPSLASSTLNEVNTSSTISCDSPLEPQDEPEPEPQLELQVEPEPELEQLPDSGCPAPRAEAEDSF
Description for M-NFS-60 cells: M-NFS-60 Cell Proliferation Assay A serial dilution of test compound was dispensed into a 384-well black clear bottom plate (Corning, Corning, N.Y.). Two thousand five hundred cells were added per well in 50 μL complete growth medium. […] IC50 values were calculated from a series of percent inhibition values determined at a range of inhibitor concentrations using software routines as implemented in the GraphPad Prism software package.

As to `CC(C)(C)C(=O)NC(=O)Nc1ccc(Oc2ccnc(NC(=O)N3CCC3)c2)cn1` [Example 48, N-(4-((6-(3-pivaloylureido)pyridin-3-yl)oxy)pyridin-2-yl)azetidine-1-carboxamide], the IC50 is less than 10 nM in test [1]; 100 to 1000 nM in test [2]; 10 to 100 nM in test [3]; less than 10 nM in the test with M-NFS-60 cells; less than 10 nM in the test with osteoclast precursors; less than 10 nM in test [4].

In the case of `CNC(=O)c1cc(Oc2ccc(NC(=O)NC(=O)C(C)(C)OC)nc2)ccn1` [Example 58, 4-((6-(3-(2-methoxy-2-methylpropanoyl)ureido)pyridin-3-yl)oxy)-N-methylpicolinamide], the IC50 is 10 to 100 nM in test [1]; greater than 1000 nM in test [2]; greater than 1000 nM in test [3]; 10 to 100 nM in the test with M-NFS-60 cells; 10 to 100 nM in the test with osteoclast precursors; less than 10 nM in test [4].

Consider `Cc1nc(NC(=O)NC(=O)C(C)(C)C)ccc1Oc1ccnc(NC(=O)N2CCOCC2)c1` [Example 63, N-(4-((2-methyl-6-(3-pivaloylureido)pyridin-3-yl)oxy)pyridin-2-yl)morpholine-4-carboxamide], for which the IC50 was less than 10 nM in test [1]; greater than 1000 nM in test [2]; greater than 1000 nM in test [3]; 10 to 100 nM in the test on M-NFS-60 cells; less than 10 nM with osteoclast precursors; 10 to 100 nM in test [4].

Turning to `CNC(=O)c1cc(Oc2ccc(NC(=O)NC(=O)C3(OC)CCCC3)nc2)ccn1` [Example 64, 4-((6-(3-(1-methoxycyclopentanecarbonyl)ureido)pyridin-3-yl)oxy)-N-methylpicolinamide], the IC50 in test [1] is less than 10 nM; in test [2], 100 to 1000 nM; in test [3], greater than 1000 nM; in the test on M-NFS-60 cells, 10 to 100 nM; in the test with osteoclast precursors, 10 to 100 nM; in test [4] it was less than 10 nM.

On to `CN(C)C(=O)Nc1cc(Oc2ccc(NC(=O)NC(=O)C3(C)CCOCC3)nc2)ccn1` [Example 65, N-((5-((2-(3,3-dimethylureido)pyridin-4-yl)oxy)pyridin-2-yl)carbamoyl)-4-methyltetrahydro-2H-pyran-4-carboxamide], for which the IC50 in test [1] is less than 10 nM; in test [2] it was 100 to 1000 nM; in test [3] it was 100 to 1000 nM; in the test with M-NFS-60 cells, 10 to 100 nM; in the test with osteoclast precursors it was less than 10 nM; in test [4], 10 to 100 nM.

As to `CC(C)C(=O)NC(=O)Nc1ccc(Oc2ccnc(NC(=O)N3CCN(C)CC3)c2)cn1` [Example 66, N-(4-((6-(3-isobutyrylureido)pyridin-3-yl)oxy)pyridin-2-yl)-4-methylpiperazine-1-carboxamide], the IC50 in test [1] is less than 10 nM; in test [2], greater than 1000 nM; in test [3], 100 to 1000 nM; in the test on M-NFS-60 cells, less than 10 nM; in the test with osteoclast precursors, less than 10 nM; in test [4], less than 10 nM.

For `COC1(C(=O)NC(=O)Nc2ccc(Oc3ccnc(NC(C)=O)c3)cn2)CCCC1` [Example 67, N-((5-((2-acetamidopyridin-4-yl)oxy)pyridin-2-yl)carbamoyl)-1-methoxycyclopentanecarboxamide], the IC50 in test [1] was 10 to 100 nM; in test [2] it was 100 to 1000 nM; in test [3] it was 10 to 100 nM; in the test on M-NFS-60 cells, less than 10 nM; with osteoclast precursors, less than 10 nM; in test [4] it was less than 10 nM.

With `CN(C)[C@@H]1CCN(C(=O)Nc2cc(Oc3ccc(NC(=O)NC(=O)C(C)(C)C)nc3)ccn2)C1` [Example 68, (R)-3-(dimethylamino)-N-(4-((6-(3-pivaloylureido)pyridin-3-yl)oxy)pyridin-2-yl)pyrrolidine-1-carboxamide], the IC50 was less than 10 nM in test [1]; greater than 1000 nM in test [2]; 10 to 100 nM in test [3]; less than 10 nM with M-NFS-60 cells; less than 10 nM with osteoclast precursors; less than 10 nM in test [4].

On to `Cc1nc(NC(=O)NC(=O)C(C)(C)C)ccc1Oc1ccnc(NC(=O)N2CCN(C)CC2)c1` [Example 69, 4-methyl-N-(4-((2-methyl-6-(3-pivaloylureido)pyridin-3-yl)oxy)pyridin-2-yl)piperazine-1-carboxamide], for which the IC50 in test [1] is less than 10 nM; in test [2] it was greater than 1000 nM; in test [3] it was greater than 1000 nM; in the test with M-NFS-60 cells, less than 10 nM; with osteoclast precursors, less than 10 nM; in test [4], less than 10 nM.

In the case of `CNC(=O)c1cc(Oc2ccc(NC(=O)NC(=O)C3(C)CCOCC3)nc2)ccn1` [Example 70, N-methyl-4-((6-(3-(4-methyltetrahydro-2H-pyran-4-carbonyl)ureido)pyridin-3-yl)oxy)picolinamide], the IC50 was 100 to 1000 nM in test [1]; greater than 1000 nM in test [2]; greater than 1000 nM in test [3]; 100 to 1000 nM with M-NFS-60 cells; 10 to 100 nM in the test with osteoclast precursors; 10 to 100 nM in test [4].

In the case of `Cc1nc(NC(=O)NC(=O)C(C)(C)C)ccc1Oc1ccnc(NC(=O)N2CCCC2)c1` [Example 71, N-(4-((2-methyl-6-(3-pivaloylureido)pyridin-3-yl)oxy)pyridin-2-yl)pyrrolidine-1-carboxamide], the IC50 in test [1] is less than 10 nM; in test [2], greater than 1000 nM; in test [3] it was 100 to 1000 nM; in the test on M-NFS-60 cells, less than 10 nM; in the test with osteoclast precursors, less than 10 nM; in test [4], less than 10 nM.

As to `CN(C)C1CCN(C(=O)Nc2cc(Oc3ccc(NC(=O)NC(=O)C(C)(C)C)nc3)ccn2)CC1` [Example 76, 4-(dimethylamino)-N-(4-((6-(3-pivaloylureido)pyridin-3-yl)oxy)pyridin-2-yl)piperidine-1-carboxamide], the IC50 is less than 10 nM in test [1]; greater than 1000 nM in test [2]; 100 to 1000 nM in test [3]; 10 to 100 nM with M-NFS-60 cells; less than 10 nM in the test on osteoclast precursors; less than 10 nM in test [4].

As to `CN(C)C1CN(C(=O)Nc2cc(Oc3ccc(NC(=O)NC(=O)C(C)(C)C)nc3)ccn2)C1` [Example 77, 3-(dimethylamino)-N-(4-((6-(3-pivaloylureido)pyridin-3-yl)oxy)pyridin-2-yl)azetidine-1-carboxamide], the IC50 was less than 10 nM in test [1]; 100 to 1000 nM in test [2]; 10 to 100 nM in test [3]; less than 10 nM in the test on M-NFS-60 cells; less than 10 nM in the test with osteoclast precursors; 10 to 100 nM in test [4].

Turning to `CNC(=O)Nc1cc(Oc2ccc(NC(=O)NC(=O)C(C)(C)C)nc2)ccn1` [Example 79, N-((5-((2-(3-methylureido)pyridin-4-yl)oxy)pyridin-2-yl)carbamoyl)pivalamide], the IC50 in test [1] was less than 10 nM; in test [2], greater than 1000 nM; in test [3], 100 to 1000 nM; in the test with M-NFS-60 cells, 100 to 1000 nM; in the test on osteoclast precursors, 10 to 100 nM; in test [4], 10 to 100 nM.

Consider `CCN1CCN(C(=O)Nc2cc(Oc3ccc(NC(=O)NC(=O)C(C)(C)C)nc3)ccn2)CC1` [Example 80, 4-ethyl-N-(4-((6-(3-pivaloylureido)pyridin-3-yl)oxy)pyridin-2-yl)piperazine-1-carboxamide], for which the IC50 is less than 10 nM in test [1]; greater than 1000 nM in test [2]; 100 to 1000 nM in test [3]; 10 to 100 nM with M-NFS-60 cells; less than 10 nM with osteoclast precursors; less than 10 nM in test [4].

For the compound `CN1CCN(C2CCN(C(=O)Nc3cc(Oc4ccc(NC(=O)NC(=O)C(C)(C)C)nc4)ccn3)CC2)CC1` [Example 81, 4-(4-methylpiperazin-1-yl)-N-(4-((6-(3-pivaloylureido)pyridin-3-yl)oxy)pyridin-2-yl)piperidine-1-carboxamide], the IC50 is less than 10 nM in test [1]; greater than 1000 nM in test [2]; 100 to 1000 nM in test [3]; 10 to 100 nM with M-NFS-60 cells; less than 10 nM in the test with osteoclast precursors; less than 10 nM in test [4].

Regarding `COCCNC(=O)Nc1cc(Oc2ccc(NC(=O)NC(=O)C(C)(C)C)nc2)ccn1` [Example 82, N-((5-((2-(3-(2-methoxyethyl)ureido)pyridin-4-yl)oxy)pyridin-2-yl)carbamoyl)pivalamide], the IC50 in test [1] was 10 to 100 nM; in test [2], greater than 1000 nM; in test [3], greater than 1000 nM; in the test on M-NFS-60 cells it was 100 to 1000 nM; in the test with osteoclast precursors, 10 to 100 nM; in test [4], less than 10 nM.
